Results on four compounds are retold here after patent US10344037B2, “Use of the FL-one hundred eighteen core chemical structure platform to generate FL-one hundred eighteen derivatives for treatment of human disease” (priority 2014, dated 2019).

Like-named read-outs stand apart in the source and are kept apart here.

The test system of data set [1] is survivin. Put plainly: Western blot for survivin expression in FaDu cells. The format is cell-based, human. The note with it: 24 hours. In general terms: In western blotting, separated proteins are transferred to a membrane and probed.
Data set [2] has as its system cancer cells. Description: Cell growth and viability, MTT. In kind it is cell-based, human. The note with it: 72 hours. As for the experimental part:
Actin is an internal control for equal protein loading. […] Subconfluent cancer cells as shown are treated with a series of concentrations of crolibulin as shown (0-100 μM) for 72 hours. Cell growth and viability are determined via MTT assay. Each curve is the mean±SD from 4 independent assays.
Crolibulin is an anticancer drug that targets endothelial cells of the cancer vasculature system. Therefore, crolibulin is considered as a vascular disrupt agent (VDA).

For data set [3], the system named is human umbilical vein endothelial cells (HUVECS). Put plainly: Cell growth and viability, MTT. The format is cell-based. Conditions: 72 hours.
The test system of data set [4] is HCT116-G7 cells. Put plainly: cells. The note with it: for RP: IC50 of topotecan divided by IC50 of the drug. In kind it is cell-based, human.
Procedure: (§3) Cancer cell viability and growth are determined by MTT assay. […] MTT is used as a colorimetric substrate for measuring cell viability and growth. When cell growth is inhibited, there is an alteration of cellular redox activity, and thus rendering cells unable to reduce the MTT dye. Cells are seeded in 96 well plates overnight and then treated with or without a compound/drug in the presence or absence of an protein molecule inhibitor (e.g. ABCG2 inhibitor ko143) for 48-72 hours, MTT is added to a final concentration 0.5 mg/ml. Cells are continuously incubated in a 5% CO2 incubator at 37° C. for 4 h with MTT and then lysed with a cell lysis buffer (20% SDS, 50% N,N-dimethylformamide, pH 4.7), 100 μl per well, for 4 h in the incubator. Subsequently, cell absorbance in each well is measured at 570 nm with an Ultra Microplate Reader (Bio-Tek Instruments). Results are reported as the mean±SD from 3-5 independent assays at each point. […] After 72 hours, media is removed and cells are harvested using 0.5 ml of 0.25% Trypsin-EDTA. Cells are counted and viability is analyzed on a Vi-CELL XR Cell Viability Analyzer (Beckman Coulter).
The test system of data set [5] is DU145 prostate cancer cells. Put plainly: Cell growth inhibition, cell counting after 72 h. In kind it is cell-based, human. An excerpt: (§1) Each dot is the mean±SD derived from 3 independent assays.
(§2) Irinotecan and topotecan are the only two analogs derived from direct modification of camptothecin (CPT) that are approved by the FDA for cancer treatment in clinical practice. […] In this regard, we obtain one DU145 parental prostate cancer cell line and two DU145-derived sub-lines with Top1 mutations (DU145-RC0.1, DU145-RC1).

The test system of data set [6] is RC0.1 (DU145-RC0.1) cells. Description: Cell growth inhibition, DU145 sub-line with Top1 mutation. The format is cell-based, human.
From the text: as §1, §2

For data set [7], the system named is RC1 (DU145-RC1) cells. The data set is described as above. The format is cell-based, human.
From the text: as §1, §2

Data set [8] concerns ABCG2 in HCT116-A2 cells. Description: Growth inhibition after ABCG2 shRNA silencing. The format is cell-based, human. The note with it: 72 hours. As for the experimental part: Actin is internal control. B and C. […] Cells at sub-confluence are infected with lentiviral particles containing nonsense shRNA (ns), or AGCG2-specific shRNA (sh1, sh2) to silence ABCG2 expression in the cells. […] Viability for each dose was determined using a ViCELL XR cell viability analyzer and normalized to that of DMSO control. Error bars=SEM, n=3 independent experiments. Data are plotted graphically and EC50 values are calculated using GraphPad Prism 6.0.

Data set [9] deals with RC0.1 (DU145-RC0.1) cells. Conditions: adopted from Urasaki Y et al.; cited from earlier work.
In data set [10] the test system is ABCG2 in HCT116-A2 cells. In kind it is cell-based, human. As for the experimental part:
Cell numbers are then counted at each drug concentration used. […] Cell numbers at each dot is the mean±SD derived from 3 independent assays. Data are plotted graphically and EC50 values are calculated using GraphPad Prism 6.0.
ABCG2 positive HCT116-derived colon cancer cells (HCT116-A2) grown at sub-confluence are treated with a series of concentrations of topotecan in triplicate for 72 hours in the presence or absence of Ko143 at 1 μM concentrations as shown. Cell numbers are then counted at each topotecan concentration used. […] Cell numbers at each dot is the mean±SD derived from 3 independent assays. Data are plotted graphically and EC50 values and R-values are calculated using GraphPad Prism 6.0.
Clinically, development of resistance to irinotecan and topotecan occurs commonly during treatment, often involving the upregulation of ABCG2. By increasing the rate of drug export, ABCG2 decreases the amount of SN-38, irinotecan or topotecan that accumulates intracellularly, thereby protecting cancer cells from the cytotoxic effects of these chemotherapeutic drugs.

Data set [11] concerns DU145 prostate cancer cells. Conditions: DU-145; adopted from Urasaki Y et al.; cited from earlier work.
Data set [12] has as its system HCT116-A2 cells. Description: cells. In kind it is cell-based, human. The note with it: for RP: IC50 of topotecan divided by IC50 of the drug.
Procedure: as §3
The subject of data set [13] is HCT116-NS6 cells. Put plainly: cells. The note with it: for RP: IC50 of topotecan divided by IC50 of the drug. In kind it is cell-based, human.
Procedure: as §3
In data set [14] the test system is HCT116-C4 cells. Put plainly: cells. The format is cell-based, human. Conditions: for RP: IC50 of topotecan divided by IC50 of the drug.
Procedure: Cancer cell viability and growth are determined by MTT assay. […] MTT is used as a colorimetric substrate for measuring cell viability and growth. When cell growth is inhibited, there is an alteration of cellular redox activity, and thus rendering cells unable to reduce the MTT dye. Cells are seeded in 96 well plates overnight and then treated with or without a compound/drug in the presence or absence of an protein molecule inhibitor (e.g. ABCG2 inhibitor ko143) for 48-72 hours, MTT is added to a final concentration 0.5 mg/ml. Cells are continuously incubated in a 5% CO2 incubator at 37° C. for 4 h with MTT and then lysed with a cell lysis buffer (20% SDS, 50% N,N-dimethylformamide, pH 4.7), 100 μl per well, for 4 h in the incubator. Subsequently, cell absorbance in each well is measured at 570 nm with an Ultra Microplate Reader (Bio-Tek Instruments). Results are reported as the mean±SD from 3-5 independent assays at each point. Alternatively, for FIG. 16, FIG. 17 and FIG. 19, cells are plated at a density of 300,000 cells/well in 6-well plates; cells are allowed to attach on the plate overnight. […] After 72 hours, media is removed and cells are harvested using 0.5 ml of 0.25% Trypsin-EDTA. Cells are counted and viability is analyzed on a Vi-CELL XR Cell Viability Analyzer (Beckman Coulter).
For data set [15], the system named is RC1 (DU145-RC1) cells. The note with it: adopted from Urasaki Y et al.; cited from earlier work.
Data set [16] concerns HCT116-C8 cells. Put plainly: cells. In kind it is cell-based, human. Conditions: for RP: IC50 of topotecan divided by IC50 of the drug.
Procedure: as §3
For data set [17], the system named is HCT116 colon cancer cells. Description: cells. In kind it is cell-based, human. Conditions: for RP: IC50 of topotecan divided by IC50 of the drug.
Procedure: as §3
Data set [18] has as its system HCT-8 cells. Description: Colony formation after 2 h or 6 h drug treatment. In kind it is cell-based, human. As for the experimental part:
Subconfluent SW620, HCT-8, and HCT-116 cells were lysed and analyzed for the expression of MDR1 and ABCG2 using western blots (WB). Actin is the internal control. […] Cell growth/viability was then analyzed by MTT assays. Each time point in the individual curve is the mean±SD from 3 to 5 independent assays. […] Drugs were then washed out and cells were allowed to grow in new medium without drugs for 2 weeks. Cell colonies were stained with crystal violet solution; images were digitally taken. Triplicate results are shown.
Cell growth is then measured and the data are plotted as percentage of growth inhibition (no drug treatment was set at 0%). […] C. […] Representative cancer cell images were taken with a digital camera under phase-contrast microscope.

For data set [19], the system named is ABCG2 in HEK293 cells.
Data set [20] concerns ABCG2 in HEK293 cells. Description: Intracellular drug concentration by flow cytometry. The format is cell-based, human. As for the experimental part: Cells are then incubated for 3 h in 37 C and 5% CO2, with manual agitation every 30 min. After incubation, cells are pelleted and supernatant is removed. Cell pellets are washed twice with ice-cold PBS, and then suspended in 300 uL ice-cold PBS, and placed on ice until analysis. Cells are analyzed on a LSR II flow cytometer (BD Biosciences, San Jose Calif.) with a 355 nm laser and a 540 nm band-pass filter to detect emission. Median fluorescence intensity (MFI) of each drug+/−Ko143 is compared.

Data set [21] is described as follows: in vivo. The note with it: SCID, mouse, in vivo, ip. As for the experimental part:
Individual tumor curves derived from individual mice are shown. A. Mice with FaDu head-&-neck tumor xenografts were first treated with irinotecan at its maximum tolerated dose (MTD, 100 mg/kg, IP) weekly for 4-5 times (black arrow). […] B. Mice with FaDu tumor xenografts were first treated with topotecan at its MTD (4 mg/kg, IP) via daily×5 schedules for 4 cycles (each black arrow is one cycle). […] C. Mice with SW620 CRC xenografts were first treated with irinotecan at its MTD (IP, weekly×4, black arrow). […] D. Mice with SW620 xenograft tumors were first treated with topotecan at its MTD.

The mark [22] stands for this setting: DU-145, IC50 of topotecan divided by IC50 of the drug.

Regarding `COc1cc([C@H]2C(C#N)=C(N)Oc3c2ccc(N)c3N)cc(Br)c1OC` [crolibulin, reference compound], the survivin expression result in [1] is listed as “strongly induce survivin expression”. The “sensitivity of cancer cells” value in data set [2] is on record as “resistant to crolibulin inhibition”. For the same compound, the “sensitivity of HUVEC cells” value in [3] is recorded as “sensitive to crolibulin inhibition”.
For `CCc1c2c(nc3ccc(O)cc13)-c1cc3c(c(=O)n1C2)COC(=O)[C@]3(O)CC` [SN-38], the IC50 in [4] is 4.76 nM; in data set [9], 11700 nM; in data set [11], 40 nM; in [12] it was 43.4 nM; in data set [13] it was 1.11 nM; in data set [14] it was 25.7 nM. For the same compound, the results for the IC50 in data set [15], in data set [16] and in data set [17] were 4430 nM, 8.47 nM and 0.192 nM, respectively. The RP is recorded as 4.048 in data set [4]; 2.499 in data set [12]; 5.055 in [13]; 3.337 in data set [14]; 44.69 in data set [16]; 2.474 in data set [17]. The “RP (relative potency)” value came to 4.75 in data set [5], 5.24 in data set [6] and 13.2 in data set [7]. Also, the “effect of silencing of ABCG2 on cell growth inhibition” value in [8] was “significantly sensitizes SN-38 to inhibit cell growth”. The “effect of ABCG2 inhibitor Ko143 on potency” value in data set [10] (HCT116-A2 cells, 72 hours, Ko143 1 μM) is “Ko143 restores potency to SN-38”.
For `CC[C@@]1(O)C(=O)OCc2c1cc1n(c2=O)Cc2cc3ccccc3nc2-1` [CPT, camptothecin], the “RP (relative potency)” value is recorded as 3.17 in [5] (setting [22]); 0.97 in data set [6] (RC0.1, IC50 of topotecan divided by IC50 of the drug); 2.69 in data set [7] (RC1, IC50 of topotecan divided by IC50 of the drug). The figures for the IC50 in data set [9], in [11] and in data set [15] were 63300 nM, 60 nM and 21700 nM, respectively.
Take `CC[C@@]1(O)C(=O)OCc2c1cc1n(c2=O)Cc2cc3c(CN(C)C)c(O)ccc3nc2-1` [Topotecan, topotecan]: the IC50 in [4] (Homo sapiens) was 19.3 nM; in data set [9] it was 61200 nM; in [11], 190 nM; in [12] (Homo sapiens), 108 nM; in [13] (Homo sapiens) it was 5.64 nM; in [14] (Homo sapiens), 85.8 nM. The IC50 is 58300 nM in data set [15]; 379 nM in data set [16] (Homo sapiens); 0.747 nM in data set [17] (Homo sapiens, HCT-116). The RP in data set [4], in data set [12], in [13], in [14], in data set [16] and in [17] was 1 each time. Moreover, in data set [18], the “colony formation inhibition, 6 hours versus 2 hours of treatment” value is recorded as “significantly better colony formation inhibition”. Moreover, in [19], the “effect of ABCG2 overexpression on IC50 for inhibition of cell growth” value is reported as “significantly increases IC50”. In addition, the “RP (relative potency)” value in data set [5] (setting [22]), in [6] and in data set [7] was 1 throughout. In data set [20], the “effect of ABCG2 overexpression on intracellular concentration” value was “decreases intracellular concentration”. For the same compound, the MTD in data set [21] was 4 mg/kg. The “effect of ABCG2 inhibitor Ko143 on potency” value in [10] is on record as “ABCG2 is also a topotecan resistance factor”.

By IC50 is commonly meant the point on the concentration scale where inhibition reaches its midpoint.
